In US20060134239A1, “Agents against microorganisms containing patchouli oil, patchouli alcohol and/or the derivatives thereof” (priority 2003, published 2006):

What was measured:
Format in all cases: cell-based
[1] = tested on: Aspergillus niger (DSM 1988); assay: Sporulation of Aspergillus niger on a filter surface after 2 applications (Example 4); conditions: for Sporulation [%]: 3 days at 25° C.
Description: Effect of Patchouli Oil on the Sporulation of Aspergillus niger on a Filter Surface after 2 Applications
Filter papers (2×2 cm) were disinfected and treated twice with a 1 hour interval with 50 μl of active-component solutions (in ethanol) differing in concentration. The test specimens were then dried. The test specimens were then placed on wort agar plates and the surface of the wort agar plates was contaminated with 100 μl of a germ suspension (10^3 CFU/ml) of Aspergillus niger (DSM 1988). The plates were incubated for 3 days at 25° C. Sporulation was visually evaluated and the sporulation rate in [%] was determined. […] Sporulation was inhibited by increasing concentrations of eugenol and was 95% suppressed at 90 μm.

[2] = tested on: Aspergillus niger, DSM 1988; assay: Sporulation of Aspergillus niger on the surface of an acetate silicone jointing compound (Example 3); conditions: for Sporulation [%]: control series
Description: Effect on Patchouli Oil on the Sporulation of Aspergillus niger on the Surface of an Acetate Jointing Compound
Commercially available, but preservative-free, one-component silicone jointing compounds curing at room temperature (acetate system, cured 2.2×2.2×0.3 cm pieces of film) were disinfected with 70% EtOH (ethanol) and placed for 24 h in active component solutions with various concentrations. The test specimens were then re-washed twice with EtOH, rinsed with distilled water (sterile) and dried for 24 h. The test specimens were weighed before and after this treatment and the quantity of active component in the test specimens was thus determined together with the concentration of the active component solution. The test specimens were then placed on wort agar plates and thinly coated with agar in which fungal spores had been incorporated (10^5 CFU/ml Aspergillus niger, DSM 1988). The plates were incubated for 3 days at 25° C. Sporulation was visually evaluated from the test specimens and the sporulation rate in [%] was determined.

[3] = tested on: Aspergillus niger (DSM 1988); assay: Sporulation of Aspergillus niger on wort agar plates with active component in the agar (Example 1); conditions: control series
Description: Effect of Patchouli Oil on the Sporulation of Aspergillus niger
(§1) Contamination of the surface of wort agar plates with 100 μl of a germ suspension (10^3 CFU/ml) of Aspergillus niger (DSM 1988). Various quantities of active component (dissolved in ethanol, for final concentrations see Table 1) were added to the agar plates beforehand. The plates were incubated for 3 days at 25° C. Sporulation was visually evaluated and the sporulation rate in [%] was determined.
Active component: patchouli oil obtained by steam distillation (mixture of patchouli oil from Kaders, Sensient, Polarome and Nitsche)

[4] = tested on: Aspergillus niger (DSM 1988); assay: Sporulation of Aspergillus niger on wort agar plates, patchouli alcohol (Example 2)
Description: Effect of Patchouli Alcohol on the Sporulation of Aspergillus niger
as §1, with “component (solutions” for “component (dissolved”, “Table 2)” for “Table 1)”, “for 5” for “for 3”, “determined. […] Sporulation was inhibited with increasing concentrations and was 95% suppressed at 450 μm.” for “determined.”

C=CCc1ccc(O)c(OC)c1 [eugenol]
Suppression of sporulation ([1]; at 90 μm): 95%
Suppression of sporulation ([2]; at 9 μm/g jointing compound): completely suppressed

CC(C)=CCCC(C)=CCCC(C)=CCO [farnesol]
Sporulation [%] ([3]; concentration 25 μm in wort agar): 90%
Sporulation [%] ([3]; concentration 62.5 μm in wort agar): 75%
Sporulation [%] ([3]; concentration 125 μm in wort agar): 50%
Sporulation [%] ([3]; concentration 250 μm in wort agar): 10%
Sporulation [%] ([3]; concentration 500 μm in wort agar): 0%
Inhibition of sporulation compared with identical concentrations of patchouli oil ([1]; second, parallel test series on filter paper): inhibited, but to a lesser extent
Sporulation [%] ([1]; solution concentration 0.5 μm, filter paper treated twice with 50 μl): 100%
Sporulation [%] ([1]; solution concentration 5 μm, filter paper treated twice): 100%
Sporulation [%] ([1]; solution concentration 25 μm, filter paper treated twice): 100%
Sporulation [%] ([1]; solution concentration 35 μm, filter paper treated twice): 60%
Sporulation [%] ([1]; solution concentration 50 μm, filter paper treated twice): 80%
Sporulation [%] ([1]; solution concentration 70 μm, filter paper treated twice): 50%
Sporulation [%] ([1]; solution concentration 90 μm, filter paper treated twice): 40%
Sporulation [%] ([2]; 0.4 μm/g jointing compound): 100%
Sporulation [%] ([2]; 1.1 μm/g jointing compound): 100%
Sporulation [%] ([2]; 17 μm/g jointing compound): 30%
Inhibition of sporulation compared with identical concentrations of patchouli oil ([2]; parallel test series on jointing compound): inhibited, but to a far lesser extent

C[C@H]1CC[C@@]2(O)C(C)(C)[C@@H]3CC[C@@]2(C)[C@H]1C3 [patchouli alcohol, Patchouli alcohol]
Inhibition of growth of the test strain ([4]; all concentrations used (up to 450 μm)): None of the active component concentrations used inhibited the growth
Suppression of sporulation ([4]; at 450 μm, 5 days at 25° C.): 95%
Sporulation [%] ([4]; concentration 225 μm in wort agar, 5 days at 25° C.): 95%
Sporulation [%] ([4]; concentration 450 μm in wort agar, 5 days at 25° C.): 5%
